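The concentration for 50% growth inhibition is given as GI50. TGI is the concentration that stops growth completely.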
Key:
Experiment in all cases: growth of human tumour cells (NCI), 384-well format
[1] = tested on: PC-3 prostate
[2] = tested on: NCI-H23 lung
[3] = tested on: NCI/ADR-RES ovarian
[4] = tested on: MDA-MB-435 melanoma
[5] = tested on: RPMI-8226 leukemia
[6] = tested on: HS 578T breast
[7] = tested on: HL-60(TB) leukemia
[8] = tested on: COLO 205 colon
[9] = tested on: SK-OV-3 ovarian
[10] = tested on: CAKI-1 renal
[11] = tested on: EKVX NSCLC
[12] = tested on: IGROV1 ovarian
[13] = tested on: MCF7 breast
[14] = tested on: KM12 colon
[15] = tested on: RXF 393 renal
[16] = tested on: NCI-H460 NSCLC
[17] = tested on: SF-295 CNS
[18] = tested on: SK-MEL-5 melanoma
[19] = tested on: MDA-MB-468 breast
[20] = tested on: A549 NSCLC
[21] = tested on: M14 melanoma
[22] = tested on: OVCAR-5 ovarian
[23] = tested on: OVCAR-4 ovarian
[24] = tested on: OVCAR-8 ovarian
[25] = tested on: HOP-92 NSCLC
[26] = tested on: HOP-62 NSCLC
[27] = tested on: NCI-H226 lung
[28] = tested on: MDA-MB-231 breast
[29] = tested on: BT-549 breast
[30] = tested on: OVCAR-3 ovarian
[31] = tested on: 786-0 renal
[32] = tested on: MALME-3M melanoma
[33] = tested on: NCI-H522 lung
[34] = tested on: NCI-H322M lung
[35] = tested on: HT29 colon
[36] = tested on: HCC-2998 colon
[37] = tested on: LOX IMVI melanoma
[38] = tested on: ACHN renal
[39] = tested on: SN12C renal
[40] = tested on: HCT-116 colon
[41] = tested on: HCT-15 colon
[42] = tested on: A498 renal
[43] = tested on: MOLT-4 leukemia
[44] = tested on: DU-145 prostate

**Q.** How did the GI50 [1] turn out when `Cc1cn(-c2cc(NC(=O)c3ccc(C)c(Nc4nccc(-c5cccnc5)n4)c3)cc(C(F)(F)F)c2)cn1` was run?
**A.** 1710 nM

**Q.** And the TGI [1]?
**A.** 3130 nM

**Q.** What about the GI50 [2] of the same molecule?
**A.** 2240 nM

**Q.** And the TGI [2]?
**A.** 7480 nM

**Q.** And the GI50 [3]?
**A.** 1580 nM

**Q.** And the TGI [3]?
**A.** 3740 nM

**Q.** And the GI50 [4]?
**A.** 1720 nM

**Q.** What about the TGI [4] of the same molecule?
**A.** 3490 nM

**Q.** And the GI50 [5]?
**A.** 1460 nM

**Q.** What about the TGI [5] of the same molecule?
**A.** 5450 nM

**Q.** And the GI50 [6]?
**A.** 1550 nM

**Q.** What about the TGI [6] of the same molecule?
**A.** 2900 nM

**Q.** What about the GI50 [7] of the same molecule?
**A.** 1460 nM

**Q.** What about the TGI [7] of the same molecule?
**A.** 7920 nM

**Q.** What about the GI50 [8] of the same molecule?
**A.** 1280 nM

**Q.** What about the TGI [8] of the same molecule?
**A.** 2980 nM

**Q.** And the GI50 [9]?
**A.** 1830 nM

**Q.** And the TGI [9]?
**A.** 3300 nM

**Q.** And the GI50 [10]?
**A.** 3040 nM

**Q.** What about the TGI [10] of the same molecule?
**A.** 10800 nM

**Q.** And the GI50 [11]?
**A.** 1880 nM

**Q.** And the TGI [11]?
**A.** 3780 nM

**Q.** And the GI50 [12]?
**A.** 1870 nM

**Q.** And the TGI [12]?
**A.** 3610 nM

**Q.** What about the GI50 [13] of the same molecule?
**A.** 1880 nM

**Q.** And the TGI [13]?
**A.** 3670 nM

**Q.** What about the GI50 [14] of the same molecule?
**A.** 2500 nM

**Q.** And the TGI [14]?
**A.** 6870 nM

**Q.** And the GI50 [15]?
**A.** 1470 nM

**Q.** And the TGI [15]?
**A.** 2840 nM

**Q.** And the GI50 [16]?
**A.** 2670 nM

**Q.** What about the TGI [16] of the same molecule?
**A.** 9420 nM

**Q.** And the GI50 [17]?
**A.** 1740 nM

**Q.** What about the TGI [17] of the same molecule?
**A.** 3390 nM

**Q.** And the GI50 [18]?
**A.** 1280 nM

**Q.** And the TGI [18]?
**A.** 2600 nM

**Q.** What about the GI50 [19] of the same molecule?
**A.** 1770 nM

**Q.** What about the TGI [19] of the same molecule?
**A.** 3310 nM

**Q.** What about the GI50 [20] of the same molecule?
**A.** 1720 nM

**Q.** What about the TGI [20] of the same molecule?
**A.** 3160 nM

**Q.** What about the GI50 [21] of the same molecule?
**A.** 1190 nM

**Q.** What about the TGI [21] of the same molecule?
**A.** 2530 nM

**Q.** What about the GI50 [22] of the same molecule?
**A.** 1910 nM

**Q.** What about the TGI [22] of the same molecule?
**A.** 5090 nM

**Q.** What about the GI50 [23] of the same molecule?
**A.** 3160 nM

**Q.** And the TGI [23]?
**A.** 7250 nM

**Q.** And the GI50 [24]?
**A.** 1590 nM

**Q.** What about the TGI [24] of the same molecule?
**A.** 3320 nM

**Q.** And the GI50 [25]?
**A.** 1660 nM

**Q.** What about the TGI [25] of the same molecule?
**A.** 3600 nM

**Q.** What about the GI50 [26] of the same molecule?
**A.** 2210 nM

**Q.** What about the TGI [26] of the same molecule?
**A.** 5730 nM

**Q.** And the GI50 [27]?
**A.** 1700 nM

**Q.** What about the TGI [27] of the same molecule?
**A.** 3680 nM

**Q.** What about the GI50 [28] of the same molecule?
**A.** 1300 nM

**Q.** And the TGI [28]?
**A.** 3650 nM

**Q.** What about the GI50 [29] of the same molecule?
**A.** 1990 nM

**Q.** What about the TGI [29] of the same molecule?
**A.** 3430 nM

**Q.** And the GI50 [30]?
**A.** 1730 nM

**Q.** What about the TGI [30] of the same molecule?
**A.** 3360 nM

**Q.** What about the GI50 [31] of the same molecule?
**A.** 1640 nM

**Q.** And the TGI [31]?
**A.** 3030 nM

**Q.** What about the GI50 [32] of the same molecule?
**A.** 447 nM

**Q.** And the TGI [32]?
**A.** 1620 nM

**Q.** What about the GI50 [33] of the same molecule?
**A.** 1820 nM

**Q.** And the TGI [33]?
**A.** 4480 nM

**Q.** And the GI50 [34]?
**A.** 2290 nM

**Q.** What about the TGI [34] of the same molecule?
**A.** 4630 nM

**Q.** What about the GI50 [35] of the same molecule?
**A.** 1660 nM

**Q.** And the TGI [35]?
**A.** 3780 nM

**Q.** What about the GI50 [36] of the same molecule?
**A.** 2240 nM

**Q.** And the TGI [36]?
**A.** 5360 nM

**Q.** And the GI50 [37]?
**A.** 2200 nM

**Q.** What about the TGI [37] of the same molecule?
**A.** 9930 nM

**Q.** What about the GI50 [38] of the same molecule?
**A.** 1640 nM

**Q.** What about the TGI [38] of the same molecule?
**A.** 3470 nM

**Q.** And the GI50 [39]?
**A.** 3610 nM

**Q.** What about the TGI [39] of the same molecule?
**A.** > 100000 nM

**Q.** What about the GI50 [40] of the same molecule?
**A.** 1650 nM

**Q.** And the TGI [40]?
**A.** 3750 nM

**Q.** What about the GI50 [41] of the same molecule?
**A.** 3600 nM

**Q.** And the TGI [41]?
**A.** 14200 nM

**Q.** And the GI50 [42]?
**A.** 1980 nM

**Q.** And the TGI [42]?
**A.** 3940 nM

**Q.** And the GI50 [43]?
**A.** 1890 nM

**Q.** And the TGI [43]?
**A.** > 100000 nM

**Q.** And the GI50 [44]?
**A.** 2800 nM

**Q.** What about the TGI [44] of the same molecule?
**A.** 7600 nM

Reference: PubChem BioAssay (NCI)
